Key:
[1] = biological target: T1, human EP4 receptor (hEP4) (Homo sapiens, UniProt P35408); assay: Radioligand binding competition vs [3H]PGE2, human recombinant EP4 receptor; settings: [3H]PGE2 competition, plasma membranes of HEK-293 stable transfectants, 60 min 25° C.
T1 construct: expressed in transfected cells; plasma membrane fraction
Description: Human Recombinant EP1, EP2, EP4, and FP Receptors: Stable Transfectants
(§1) HEK-293 cells stably expressing the human or feline FP receptor, or EP1, EP2, EP3, or EP4 receptors were washed with TME buffer, scraped from the bottom of the flasks, and homogenized for 30 sec using a Brinkman PT 10/35 polytron. TME buffer was added to achieve a final 40 ml volume in the centrifuge tubes (the composition of TME is […]; ION HCl is added to achieve a pH of 7.4).
The cell homogenate was centrifuged at 19000 r.p.m. for 20 min at 4° C. using a Beckman Ti-60 rotor. The resultant pellet was resuspended in TME buffer to give a final 1 mg/ml protein concentration, as determined by Biorad assay. Radioligand binding competition assays vs. [^3H-]17 -phenyl PGF2α (5 nM) were performed in a 100 μl volume for 60 min. Binding reactions were started by adding plasma membrane fraction. The reaction was terminated by the addition of 4 ml ice-cold TRIS-HCl buffer and rapid filtration through glass fiber GF/B filters using a Brandel cell harvester. The filters were washed 3 times with ice-cold buffer and oven dried for one hour. Non-specific binding was determined with 10 uM unlabeled 17 -phenyl PGF2α.
(§2) [^3H-] PGE2 (5 nM; specific activity 180 Ci mmol) was used as the radioligand for EP receptors. Binding studies employing EP1, EP2, EP3, EP4 were performed in duplicate in at least three separate experiments. A 200 μl assay volume was used. Incubations were for 60 min at 25° C. and were terminated by the addition of 4 ml of ice-cold 50 mM TRIS-HCl, followed by rapid filtration through Whatman GF/B filters and three additional 4 ml washes in a cell harvester (Brandel). Non-specific binding determined with 10^−5M of unlabeled PGE2,.
Plasmids encoding the human EP1, EP2, EP4, and FP receptors were prepared by cloning the respective coding sequences into the eukaryotic expression vector pCEP4 (Invitrogen). The pCEP4 vector contains an Epstein Barr virus (EBV) origin of replication, which permits episomal replication in primate cell lines expressing EBV nuclear antigen (EBNA-1). Similarly, competitive experiments were caried out using [3H]17-phenylPGF2α at 5 nM in the presence of test ligands at various concentrations. Also non-specific binding was, determined in the presence of excess unlabeled PGF2α (10^−5 M).
It also contains a hygromycin resistance gene that is used for eukaryotic selection. The cells employed for stable transfection were human embryonic kidney cells (HEK-293) that were transfected with and express the EBNA-1 protein. These HEK-293-EBNA cells (Invitrogen) were grown in medium containing Geneticin (G418) to maintain expression of the EBNA-1 protein. HEK-293 cells were grown in DMEM with 10% fetal bovine serum (FBS), 250 μg ml G418 (Life Technologies) and 200 μg ml^−1 gentamicin or penicillin/streptomycin.
For transfection, the cells were grown to 50-60% confluency on 10 cm plates. The plasmid pCEP4 incorporating cDNA inserts for the respective human prostanoid receptor (20 μg) was added to 500 μl of 250 mM CaCl2. HEPES buffered saline ×2 (2×HBS, 280 mM NaCl, 20 mM HEPES acid, 1.5 mM Na2 HPO4, pH 7.05-7.12) was then added dropwise to a total of […], with continuous vortexing at room temperature. After 30 min, 9 ml DMEM were added to the mixture. The DNA/DMEM/calcium phosphate mixture was then added to the cells, which had been previously rinsed with 10 ml PBS. The cells were then incubated for 5 hr at 37° C. in humidified 95% air/5% CO2. The calcium phosphate solution was then removed and the cells were treated with 10% glycerol in DMEM for 2 min. The glycerol solution was then replaced by DMEM with 10% FBS. The cells were incubated overnight and the medium was replaced by DMEM/10% FBS containing 250 μg ml^−1 G418 and penicillin/streptomycin. The following day hygromycin B was added to a final concentration of 200 μg ml^−1. […]

[2] = biological target: T2, human EP3 receptor (hEP3, D isoform) (Homo sapiens, UniProt P43115); assay: Radioligand binding competition vs [3H]PGE2, human recombinant EP3 receptor; settings: [3H]PGE2 competition, plasma membranes of transfected cells (COS-7 transient; HEK-293 also named), 60 min 25° C.
T2 construct: expressed in transfected cells; host or cells: COS-7 cells, transient transfection with pcDNA3 (lipofectin); plasma membrane fraction
T2 sequence (P43115 1-374 isoform P43115-4): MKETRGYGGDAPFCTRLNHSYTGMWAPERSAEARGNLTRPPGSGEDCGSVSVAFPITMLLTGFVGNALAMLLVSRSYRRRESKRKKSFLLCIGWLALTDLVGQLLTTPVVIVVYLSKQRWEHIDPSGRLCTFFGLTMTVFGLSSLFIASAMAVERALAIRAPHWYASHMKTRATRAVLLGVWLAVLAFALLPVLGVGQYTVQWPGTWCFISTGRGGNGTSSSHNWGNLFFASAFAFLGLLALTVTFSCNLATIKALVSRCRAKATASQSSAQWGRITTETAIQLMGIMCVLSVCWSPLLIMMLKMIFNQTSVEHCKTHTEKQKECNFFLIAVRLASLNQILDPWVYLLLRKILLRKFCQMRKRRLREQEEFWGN
Description: as §1, §2
Human Recombinant EP3 and TP Receptors: Transient Transfectants.
Plasmids encoding the human EP3 (D isoform) or TP receptor were prepared by cloning the respective coding sequences into a pcDNA3 vector (Invitrogen). COS-7 cells were transfected with pcDNA3 containing cDNA encoding the EP3 or TP receptor by employing the lipofectin method, according to the manufacturers instructions (Gibco). For radioligand binding studies, cells were harvested two days after transfection.
Radioligand binding studies on plasma membrane fractions prepared from cells were performed as follows. Cells washed with TME buffer were scraped from the bottom of the plates and homogenized for 30 sec using a Brinkman PT 10/35 polytron. TME buffer was added as necessary to achieve a 40 ml volume in the centrifuge tubes. TME is comprised of 50 mM TRIS base, 10 mM MgCl2, 1 mM EDTA; pH 7.4 is achieved by adding 1 N HCl. The cell homogenate was centrifuged at 19,000 rpm for 20-25 min at 4° C. using a Beckman Ti-60 or T ? -70 rotor. The pellet was then resuspended in TME buffer to provide a final protein concentration of 1 mg/ml, as determined by Bio-Rad assay. Radioligand binding assays were performed in a 100 μl or 200 μl volume.
The binding of [^3H] PGE2 (specific activity 165 Ci/mmol) was determined in duplicate and, in at least 3 separate experiments. Incubations were for 60 min at 25° C. and were terminated by the addition of 4 ml of ice-cold 50 mM TRIS-HCl followed by rapid filtration through Whatman GF/B filters and three additional 4 ml washes in a cell harvester (Brandel). Competition studies were performed using a final concentration of 2.5 or 5 nM [H] PGE2 and non-specific binding was determined with 10^−5 M unlabelled PGE2.

T1 sequence (P35408 whole entry): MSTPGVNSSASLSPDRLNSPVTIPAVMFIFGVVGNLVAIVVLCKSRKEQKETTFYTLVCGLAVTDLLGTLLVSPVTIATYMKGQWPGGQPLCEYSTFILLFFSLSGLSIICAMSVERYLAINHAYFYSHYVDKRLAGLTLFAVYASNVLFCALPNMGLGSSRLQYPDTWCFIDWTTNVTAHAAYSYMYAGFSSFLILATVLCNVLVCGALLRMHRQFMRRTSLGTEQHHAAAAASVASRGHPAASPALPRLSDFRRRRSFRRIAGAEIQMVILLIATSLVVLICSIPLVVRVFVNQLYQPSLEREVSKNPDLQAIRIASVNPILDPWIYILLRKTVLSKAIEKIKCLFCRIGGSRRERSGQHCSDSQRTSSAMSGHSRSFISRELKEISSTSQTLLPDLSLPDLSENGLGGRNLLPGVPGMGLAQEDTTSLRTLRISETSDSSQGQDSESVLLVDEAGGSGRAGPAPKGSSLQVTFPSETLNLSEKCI

Row | Structure (SMILES) | IC50 [1] | IC50 [2]
1 | COC(=O)CSCCCS[C@H]1C(=O)C[C@@H](O)[C@@H]1/C=C/[C@@](C)(O)CCc1cc2ccccc2s1 [Example 33H, {3-[(1R,2S,3R)-3-Hydroxy-2-((S)-(E)-3-(hydroxy)-3-(methyl)-5-(benzothienyl)pent-1-enyl)-5-oxocyclopentylsulfanyl]propylsulfanyl}acetic acid methyl ester] | 200 nM | –
2 | COC(=O)CSCCCS[C@H]1C(=O)C[C@@H](O)[C@@H]1/C=C/C(O)Cc1csc2ccccc12 (single isomer, unassigned) [Example 24H] | 200 nM | –
3 | COC(=O)CSCCCS[C@H]1C(=O)C[C@@H](O)[C@@H]1/C=C/C(O)Cc1ccc2ccccc2c1 (single isomer, unassigned) [Example 21H] | 100 nM | > 10000 nM
4 | COC(=O)CSCCCS[C@H]1C(=O)C[C@@H](O)[C@@H]1/C=C/[C@@H](O)CCc1cc2ccccc2s1 [Example 13H, {3-[(1R,2S,3R)-3-Hydroxy-2-((S)-(E)-3-hydroxy-5-(benzothienyl)pent-1-enyl)-5-oxocyclopentylsulfanyl]propylsulfanyl}acetic acid methyl ester] | 91 nM | –
5 | COC(=O)CSCCCS[C@H]1C(=O)C[C@@H](O)[C@@H]1/C=C/C(C)(O)CCc1ccc2ccccc2c1 (single isomer, unassigned) [Example 27L] | 3400 nM | –
6 | COC(=O)CSCCCS[C@H]1C(=O)C[C@@H](O)[C@@H]1/C=C/C(O)Cc1ccc2ccccc2c1 (single isomer, unassigned) [Example 21L] | 13 nM | > 10000 nM
7 | COC(=O)CSCCCS[C@H]1C(=O)C[C@@H](O)[C@@H]1/C=C/C(O)CCc1ccc2ccccc2c1 (stereo partly drawn) [Example 9L, {3-[(1R,2S,3R)-3-Hydroxy-2-((S)-(E)-3-(hydroxy)-5-(naphthyl)pent-1-enyl)-5-oxocyclopentylsulfanyl]propylsulfanyl}acetic acid methyl ester] | – | > 10000 nM
8 | COC(=O)CSCCCS[C@H]1C(=O)C[C@@H](O)[C@@H]1/C=C/C(O)CCc1ccc2ccccc2c1 (stereo partly drawn) [Example 9H, {3-[(1R,2S,3R)-3-Hydroxy-2-((S)-(E)-3-(hydroxy)-5-(naphthyl)pent-1-enyl)-5-oxocyclopentylsulfanyl]propylsulfanyl}acetic acid methyl ester] | 40 nM | –
9 | C[C@@](O)(/C=C/[C@H]1[C@H](O)CC(=O)[C@@H]1SCCCSCC(=O)O)CCc1cc2ccccc2s1 [Example 34L, {3-[(1R,2S,3R)-3-Hydroxy-2-((S)-(E)-3-(hydroxy)-3-(methyl)-5-(benzothienyl)pent-1-enyl)-5-oxocyclopentylsulfanyl]propylsulfanyl}acetic acid] | 68 nM | > 10000 nM
10 | COC(=O)CSCCCS[C@H]1C(=O)C[C@@H](O)[C@@H]1/C=C/[C@@](C)(O)CCc1cc2ccccc2s1 [Example 33L, {3-[(1R,2S,3R)-3-Hydroxy-2-((S)-(E)-3-(hydroxy)-3-(methyl)-5-(benzothienyl)pent-1-enyl)-5-oxocyclopentylsulfanyl]propylsulfanyl}acetic acid methyl ester] | 300 nM | –

More lines, now with the values ahead:

Row | IC50 [1] | IC50 [2] | Structure (SMILES)
11 | 900 nM | 9300 nM | CC(O)(/C=C/[C@H]1[C@H](O)CC(=O)[C@@H]1SCCCSCC(=O)O)Cc1ccc2ccccc2c1 (stereo partly drawn) [Example 31L, {3-[(1R,2S,3R)-3-Hydroxy-2-((E)-3-hydroxy-3-methyl-4-naphthalen-2-yl-but-1-enyl)-5-oxocyclopentylsulfanyl]propylsulfanyl}acetic acid]
12 | 32 nM | > 10000 nM | O=C(O)CSCCCS[C@H]1C(=O)C[C@@H](O)[C@@H]1/C=C/C(O)Cc1ccc2ccccc2c1 (single isomer, unassigned) [Example 22H]
13 | 3200 nM | – | COC(=O)CSCCCS[C@H]1C(=O)C[C@@H](O)[C@@H]1/C=C/C(C)(O)Cc1ccc2ccccc2c1 (stereo partly drawn) [Example 30L, {3-[(1R,2S,3R)-3-Hydroxy-2-((E)-3-hydroxy-3-methyl-4-naphthalen-2-yl-but-1-enyl)-5-oxocyclopentylsulfanyl]propylsulfanyl}acetic acid methyl ester]
14 | 500 nM | – | COC(=O)CSCCCS[C@H]1C(=O)C[C@@H](O)[C@@H]1/C=C/C(C)(O)CCc1ccc2ccccc2c1 (single isomer, unassigned) [Example 27H]
15 | 1700 nM | > 10000 nM | CC(O)(/C=C/[C@H]1[C@H](O)CC(=O)[C@@H]1SCCCSCC(=O)O)CCc1ccc2ccccc2c1 (stereo partly drawn) [Example 28H, {3-[(1R,2S,3R)-3-Hydroxy-2-((S)-(E)-3-(hydroxy)-3-(methyl)-5-(naphthyl)pent-1-enyl)-5-oxocyclopentylsulfanyl]propylsulfanyl}acetic acid]
16 | 1500 nM | > 10000 nM | CC(O)(/C=C/[C@H]1[C@H](O)CC(=O)[C@@H]1SCCCSCC(=O)O)CCc1ccc2ccccc2c1 (stereo partly drawn) [Example 28L, {3-[(1R,2S,3R)-3-Hydroxy-2-((S)-(E)-3-(hydroxy)-3-(methyl)-5-(naphthyl)pent-1-enyl)-5-oxocyclopentylsulfanyl]propylsulfanyl}acetic acid]
17 | 300 nM | 8100 nM | CC(O)(/C=C/[C@H]1[C@H](O)CC(=O)[C@@H]1SCCCSCC(=O)O)Cc1ccc2ccccc2c1 (stereo partly drawn) [Example 31H, {3-[(1R,2S,3R)-3-Hydroxy-2-((E)-3-hydroxy-3-methyl-4-naphthalen-2-yl-but-1-enyl)-5-oxocyclopentylsulfanyl]propylsulfanyl}acetic acid]

Source: US7872045B2, “Combination therapy for glaucoma treatment” (Allergan, Inc., priority 2001, dated 2011)
